Experimental data published in patent US20120264811A1, “Elongator Proteins and Use Thereof as DNA Demethylases” (The University of North Carolina at Chapel Hill, priority 2009, published 2012).
Entries after “also recorded” stand apart in the source; their conditions may differ.

Experiments:
[1] = tested on: NIH3T3 cells that stably express CxxC-EGFP; test: CxxC-EGFP reporter dot formation in NIH3T3 cells; assay type: cell-based, mouse; details: 5 μM for 72 hours
[2] = tested on: paternal DNA demethylation; test: chemical injection into oocytes, paternal DNA demethylation; assay type: cell-based, mouse; details: approximately 10 pl of 10 μM in ethanol injected; final concentration estimated 0.4 μM
Procedure: For chemical injection, approximately 10 pl of 3,5-Di-tert-butyltoluene and butylated hydroxytoluence (Sigma Aldrich) at the concentration of 10 μM in ethanol were injected with H3.3-mRFP1 mRNA. The final chemical concentration is estimated as
0.4 μM based on an estimated mouse oocyte volume of 270 pl. The final estimated ethanol concentration is about 4%. For determination of knockdown efficiency, RNA isolated from 10-20 zygotes at PN4-5 stage was used for reverse transcription using the SuperScript III Cell Direct cDNA synthesis kit (Invitrogen) followed by quantitative PCR (qPCR) using SYBR GreenER (Invitrogen). Results were normalized with 18S rRNA as a standard.

Row | Structure (SMILES) | number and intensity of GFP bright dots (nuclear dot-formation of CxxC probe) [1] | paternal DNA demethylation after chemical injection [2]
1 | Nc1ncn([C@H]2C[C@H](O)[C@@H](CO)O2)c(=O)n1 [5-Aza-dC, 5-Aza-2′ deoxycytidine] | clear increase; also recorded: Enhanced nuclear dot-formation | –
2 | Cc1cc(C(C)(C)C)c(O)c(C(C)(C)C)c1 [butylated hydroxytoluene] | – | blocked DNA demethylation
